Reference: PubChem BioAssay AID1963834 (Molecular Pharmacology Branch, DTP, NCI, 2024)

Test system: 873145-292-R-J1-PDC complex spheroid viability
Experiment: Anticancer human tumor 873145-292-R-J1-PDC patient-derived renal clear cell carcinoma cell line growth inhibition [POLQ]
Conditions: for IC50: curve of first compound; for viability, T/C: stronger effect = lower value
Outline: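 Three-cell-type spheroids modelling solid tumor plus stroma served as the readout system; POL inhibitors were tested individually and in combination, concentration ranges set by clinical Cmax where known.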
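Further: spheroids exposed to compounds for 7 days before viability readout.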
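Wherever viability, T/C is given: luminescence signal used as surrogate for viable cell content; 100% = DMSO vehicle control viability.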

For CCc1cc2c(N3CCc4c(cc(Cn5ccnc5)cc4-c4cn(C)nc4C(F)(F)F)C3=O)ccnc2c(OC)n1 + COC1C(OC(N)=O)C(O)C(Oc2ccc3c(O)c(NC(=O)c4ccc(O)c(CC=C(C)C)c4)c(=O)oc3c2C)OC1(C)C, the IC50 (second compound 0.0316 µM) was over 10 µM, the IC50 (second compound 0.1 µM) was over 10 µM and the IC50 (second compound 0.316 µM) was over 10 µM. For the same molecule, the IC50 (second compound 1 µM) was over 10 µM, the IC50 (second compound 3.16 µM) was over 10 µM and the IC50 (second compound 10 µM) was over 10 µM. For the same molecule, the viability, T/C (second compound 0.0316 µM, first compound 0.0316 µM) was 97.1%, the viability, T/C (second compound 0.0316 µM, first compound 0.1 µM) was 96.5% and the viability, T/C (second compound 0.0316 µM, first compound 0.316 µM) was 98.2%. The viability, T/C (second compound 0.0316 µM, first compound 1 µM) was 97.9%, the viability, T/C (second compound 0.0316 µM, first compound 3.16 µM) was 86.8% and the viability, T/C (second compound 0.0316 µM, first compound 10 µM) was 79.6%. The viability, T/C (second compound 0.1 µM, first compound 0.0316 µM) was 106%, the viability, T/C (second compound 0.1 µM, first compound 0.1 µM) was 101% and the viability, T/C (second compound 0.1 µM, first compound 0.316 µM) was 87.7%. The viability, T/C (second compound 0.1 µM, first compound 1 µM) was 81.5%, the viability, T/C (second compound 0.1 µM, first compound 3.16 µM) was 82% and the viability, T/C (second compound 0.1 µM, first compound 10 µM) was 85%. It also gave a viability, T/C (second compound 0.316 µM, first compound 0.0316 µM) of 107%, a viability, T/C (second compound 0.316 µM, first compound 0.1 µM) of 90.1% and a viability, T/C (second compound 0.316 µM, first compound 0.316 µM) of 86.4%. For the same molecule, the viability, T/C (second compound 0.316 µM, first compound 1 µM) was 98.7%, the viability, T/C (second compound 0.316 µM, first compound 3.16 µM) was 96.6% and the viability, T/C (second compound 0.316 µM, first compound 10 µM) was 83.2%. For the same molecule, the viability, T/C (second compound 1 µM, first compound 0.0316 µM) was 94.1%, the viability, T/C (second compound 1 µM, first compound 0.1 µM) was 92.4% and the viability, T/C (second compound 1 µM, first compound 0.316 µM) was 86.7%. The viability, T/C (second compound 1 µM, first compound 1 µM) was 104%, the viability, T/C (second compound 1 µM, first compound 3.16 µM) was 84.3% and the viability, T/C (second compound 1 µM, first compound 10 µM) was 74.4%. For the same molecule, the viability, T/C (second compound 3.16 µM, first compound 0.0316 µM) was 103%, the viability, T/C (second compound 3.16 µM, first compound 0.1 µM) was 98.7% and the viability, T/C (second compound 3.16 µM, first compound 0.316 µM) was 96.5%. It also gave a viability, T/C (second compound 3.16 µM, first compound 1 µM) of 91.8%, a viability, T/C (second compound 3.16 µM, first compound 3.16 µM) of 82.4% and a viability, T/C (second compound 3.16 µM, first compound 10 µM) of 91.4%. It also gave a viability, T/C (second compound 10 µM, first compound 0.0316 µM) of 88.4%, a viability, T/C (second compound 10 µM, first compound 0.1 µM) of 97.5% and a viability, T/C (second compound 10 µM, first compound 0.316 µM) of 87%. For the same molecule, the viability, T/C (second compound 10 µM, first compound 1 µM) was 86.2%, the viability, T/C (second compound 10 µM, first compound 3.16 µM) was 85.1% and the viability, T/C (second compound 10 µM, first compound 10 µM) was 78.2%.
